Literature values as cited in patent publication US20240398886A1, “EFFECTIVE EYELID, FACE, HEAD AND BODY CLEANSER” (priority 2023, published 2024).

Key:
[1] = mammals; refs (12, 13)
[2] = humans and warm-blooded vertebrates; refs (12, 13)

## C/C=C(\C)C(=O)O[C@H]1C[C@@H](OC(C)=O)[C@@]2(C(=O)OC)CO[C@H]3[C@@H](O)[C@@](C)([C@]45O[C@@]4(C)[C@H]4C[C@@H]5O[C@@H]5OC=C[C@@]54O)[C@H]4[C@]1(CO[C@]4(O)C(=O)OC)[C@@H]32 [Azadirachtin]
[1]
  genotoxicity: without genotoxicity
[2]
  toxicity: non-toxic
